Where two headings read alike, the source gives them in different places.
Key:
[1] = test system: fibromyalgia patients; details: 10 to 40 mg over a 12 week period; cited from earlier work
[2] = test system: subjects with tinnitus
Excerpt: Four selected outcome variables were used in this preliminary analysis: Global improvement (GI), Tinnitus Handicap Inventory (THI) and Tinnitus Impairment Questionnaire (TBF 12) questionnaires and Minimum Masking Levels (MML). The changes on the outcome variables were obtained by subtracting week 12's scores from the screening scores. The presence of a negative result means a decrease on values.
In Table 2 the changes on outcome variables are listed by Global Improvement (GI) classification, as follows: GI 1=much better; 2=better; 3=slightly better; 4=no change; 5=slightly worse; 6=worse; 7=much worse; THI: Tinnitus Handicap Inventory, TBF 12: Tinnitus Impairment Questionnaire; MML: minimal masking levels, measured in dB HL (Hearing Level).
Four different criteria were established to determine whether a subject responded or not to treatment (see Table 3).

[3] = Criteria 1: improvement on GI, 15 subjects
[4] = Criteria 2: Criteria 1 + decrease on THI
[5] = Criteria 3: Criteria 2 + decrease on TBF 12
[6] = Criteria 4: Criteria 3 + decrease on MML

CN(C)CCC=C1c2ccccc2C=Cc2ccccc21 [Cyclobenzaprine]
Quality of sleep and pain score [1]: significantly improved
Total number of tender points and muscle tightness [1]: reduction
Most frequent side effects ([2]; 15 subjects, oral 15-30 mg/day): dry mouth and constipation
Non responders % ([2]; Criteria 1: improvement on GI): 26.7%
Non responders n ([2]; Criteria 1: improvement on GI): 4
Responders % [2, 3]: 73.3%
Responders n [2, 3]: 11
Non responders % [2, 4]: 26.4%
Non responders n [2, 4]: 4
Responders % [2, 4]: 73.3%
Responders n [2, 4]: 11
Non responders % [2, 5]: 33.3%
Non responders n [2, 5]: 5
Responders % [2, 5]: 66.6%
Responders n [2, 5]: 10
Non responders % [2, 6]: 46.7%
Non responders n [2, 6]: 7
Responders % [2, 6]: 53.3%
Responders n [2, 6]: 8
Subjects Better or Much Better on GI ([2]; FIG. 1, 15 subjects): 8 subjects
Tolerability ([2]; common side effects like constipation and dry mouth): tolerated well by most subjects
Sleep and muscle relaxation ([2]; described by many patients): Improvement on sleep and muscle relaxation
Subjects with changes on tinnitus pitch ([2]; human, in vivo): 5 out of 15 subjects
Side effect that led one subject to interrupt the study ([2]; one subject, week 8): severe constipation
Results in tinnitus at a dosage of 30 mg/day ([2]; oral, 30 mg/day): Excellent results
Tinnitus change noticed where MML was not possible to measure ([2]; subject 3, intermittent tinnitus): change on intensity and less episodes
Progression of Minimum Masking Levels (MML) during the tests ([2]; subjects 4, 8, 9, 10 and 11, FIGS. 2-6): progressive reduction
Effect on tinnitus severity and tinnitus loudness ([2]; tested subjects): positive effect
Tinnitus after treatment was weaned off ([2]; weaned off after 12 weeks): got worse in some patients
